Assay results: patent US11839216B1, “Quinoline-2,3-fused nine-membered ring scaffold compound, and preparation method and application thereof as effective component in plant fungicide” (QINGDAO AGRICULTURAL UNIVERSITY, priority 2022, dated 2023)

How the values were obtained:
Assay in all cases: antibacterial activity by mycelial growth rate method
Format in all cases: cell-based
B. cinerea = details: Botrytis cinerea; for inhibition at 25 µg/mL: 25 mg/L; for inhibition at 50 µg/mL: 50 mg/L; for inhibition at 100 µg/mL: 100 mg/L
Procedure: (§1) Five common strains of C. gloeosporioides, V. mali, F. oxysporum, B. cinerea and G. graminis were selected, and the antibacterial activity of the compounds was tested by a mycelial growth rate method (Ann. Appl. Biol., 2008, 152, 369). The above strains for test were provided by Shangdong Biopesticide Engineering Research Center. Firstly, a certain amount of potato dextrose agar (PDA) was weighed and placed in a wide neck flask, distilled water was added to the wide-necked flask, to prepare a culture medium, and the culture medium was placed in an autoclave for sterilization at 120° C. for half an hour. 1 mg of drugs to be tested were weighed and dissolved in 10 mL of acetone to prepare 100 mg/L of agents, a half of agents therein were taken and diluted with the acetone to 10 mL to prepare 50 mg/L of agents, and 25 mg/L, 12.5 mg/L and 6.25 mg/L of agents might be prepared in such way. 5 mL of agents therein were taken and poured into 50 mL of potato dextrose agar for uniform mixing, and then the mixtures were poured into 5 culture media sterilized at high temperature respectively. The five pathogens were inoculated with inoculation loops respectively after cooling, sealed with sealing films and transferred to a proper temperature for observation. When colonies in the control group without the agents reached […], the colonies in the experimental groups were measured by a cross intersection method according to the following formula: Inhibition rate=(colony diameter of the control group−colony diameter of the experimental groups)/colony diameter of the control group×[…]

F. oxysporum = details: Fusarium oxysporum; for inhibition at 25 µg/mL: 25 mg/L; for inhibition at 50 µg/mL: 50 mg/L; for inhibition at 100 µg/mL: 100 mg/L
Procedure: as §1

V. mali = details: Cytospora mali; for inhibition at 25 µg/mL: 25 mg/L; for inhibition at 50 µg/mL: 50 mg/L; for inhibition at 100 µg/mL: 100 mg/L
Procedure: as §1

G. graminis = details: Gaeumannomyces graminis; for inhibition at 25 µg/mL: 25 mg/L; for inhibition at 50 µg/mL: 50 mg/L; for inhibition at 100 µg/mL: 100 mg/L
Procedure: as §1

C. gloeosporioides = details: Colletotrichum gloeosporioides; for inhibition at 25 µg/mL: 25 mg/L; for inhibition at 50 µg/mL: 50 mg/L; for inhibition at 100 µg/mL: 100 mg/L
Procedure: as §1

SMILES	inhibition at 25 µg/mL (B. cinerea) [%]	inhibition at 50 µg/mL (B. cinerea) [%]	inhibition at 100 µg/mL (B. cinerea) [%]	inhibition at 25 µg/mL (F. oxysporum) [%]	inhibition at 50 µg/mL (F. oxysporum) [%]	inhibition at 100 µg/mL (F. oxysporum) [%]	inhibition at 25 µg/mL (V. mali) [%]	inhibition at 50 µg/mL (V. mali) [%]	inhibition at 100 µg/mL (V. mali) [%]	inhibition at 25 µg/mL (G. graminis) [%]	inhibition at 50 µg/mL (G. graminis) [%]	inhibition at 100 µg/mL (G. graminis) [%]	inhibition at 25 µg/mL (C. gloeosporioides) [%]	inhibition at 50 µg/mL (C. gloeosporioides) [%]	inhibition at 100 µg/mL (C. gloeosporioides) [%]
c1ccc(CN2Cc3cc4ccccc4nc3CC3CCCN3c3ccccc32)cc1 (stereo not drawn) [Compound 1]	≤ 100	100	100	49.3	100	100	≤ 100	100	100	36.9	54.1	68.9	100	100	100
Fc1ccc(CN2Cc3cc4ccccc4nc3CC3CCCN3c3ccccc32)cc1 (stereo not drawn) [Compound 2]	≤ 100	100	100	100	100	100	≤ 100	100	100	100	100	100	92.4	100	100
Cc1ccc(CN2Cc3cc4ccccc4nc3CC3CCCN3c3ccccc32)cc1 (stereo not drawn) [Compound 3]	≤ 100	100	100	100	100	100	≤ 100	100	100	58.2	62.1	100	100	100	100
COc1cccc(CN2Cc3cc4ccccc4nc3CC3CCCN3c3ccccc32)c1 (stereo not drawn) [Compound 4]	≤ 100	100	100	100	100	100	≤ 100	100	100	61.2	66.5	100	100	100	100
Cc1ccc(CN2Cc3cc4ccccc4nc3CC3CCCN3c3cc(Cl)ccc32)cc1 (stereo not drawn) [Compound 5]	≤ 100	100	100	100	100	100	≤ 100	100	100	35.9	51.9	75.1	88.1	100	100
Cc1ccc(CN2Cc3cc4cc(C(F)(F)F)ccc4nc3CC3CCCN3c3ccccc32)cc1 (stereo not drawn) [Compound 6]	≤ 100	100	100	86.5	100	100	≤ 100	100	100	56.3	100	100	74.6	82.1	100
